Reference: US8188102B2, “Amide derivative for inhibiting the growth of cancer cells” (Hanmi Holdings Co., Ltd., priority 2007, dated 2012)

What was measured:
[1] = system: SK-Br3 breast cancer cell line; assay: Cancer cell growth inhibition, SK-Br3 (SRB); conditions: Homo sapiens, SK-BR-3, 72 h, read-out: ID50 (nM) SK-Br3
[2] = system: SW-620 colon/rectal cancer cell line; assay: Cancer cell growth inhibition, SW-620 (SRB); conditions: Homo sapiens, SW-620, 72 h, read-out: IC50 (nM) SW-620
[3] = system: A431 skin cancer cell line; assay: Cancer cell growth inhibition, A431 (SRB); conditions: Homo sapiens, A-431, 72 h, read-out: ID50 (nM) A431
[4] = system: H1975 lung cancer cell line; assay: Cancer cell growth inhibition, H1975 (celltiter); conditions: Homo sapiens, NCI-H1975, 48 h, read-out: IC50 (nM) H1975
Experimental: The medium was removed from each well of the 96-well plate.
In case of H1975, the cells were diluted with a culture medium to a concentration of 50,000 cells/ml. 100 μl of the diluted cell solution was added to each well of a 96-well plate, and, after 1 day, was washed with a mixture of RPMI, 0.1% FBS and 1% penicillin-streptomycin (PS), followed by replacement of the medium. The plate was allowed to be kept overnight and be treated to various concentrations under the same medium condition for 48 hrs. Similarly to an MTT assay, 15 μl of a celltiter one shot solution (Promega) was added to each well, which was incubated for 2 to 3 hrs, and, then, the absorbance at 490 nm was determined.

EGFR T790M kinase = EGFR T790M kinase (Homo sapiens, UniProt P00533, T790M); assay: Inhibition of EGFR mutant enzyme (T790M); conditions: read-out: IC50 (nM) T790M; EGFR T790M kinase
EGFR T790M kinase, sequence (P00533 25-1210 T790M): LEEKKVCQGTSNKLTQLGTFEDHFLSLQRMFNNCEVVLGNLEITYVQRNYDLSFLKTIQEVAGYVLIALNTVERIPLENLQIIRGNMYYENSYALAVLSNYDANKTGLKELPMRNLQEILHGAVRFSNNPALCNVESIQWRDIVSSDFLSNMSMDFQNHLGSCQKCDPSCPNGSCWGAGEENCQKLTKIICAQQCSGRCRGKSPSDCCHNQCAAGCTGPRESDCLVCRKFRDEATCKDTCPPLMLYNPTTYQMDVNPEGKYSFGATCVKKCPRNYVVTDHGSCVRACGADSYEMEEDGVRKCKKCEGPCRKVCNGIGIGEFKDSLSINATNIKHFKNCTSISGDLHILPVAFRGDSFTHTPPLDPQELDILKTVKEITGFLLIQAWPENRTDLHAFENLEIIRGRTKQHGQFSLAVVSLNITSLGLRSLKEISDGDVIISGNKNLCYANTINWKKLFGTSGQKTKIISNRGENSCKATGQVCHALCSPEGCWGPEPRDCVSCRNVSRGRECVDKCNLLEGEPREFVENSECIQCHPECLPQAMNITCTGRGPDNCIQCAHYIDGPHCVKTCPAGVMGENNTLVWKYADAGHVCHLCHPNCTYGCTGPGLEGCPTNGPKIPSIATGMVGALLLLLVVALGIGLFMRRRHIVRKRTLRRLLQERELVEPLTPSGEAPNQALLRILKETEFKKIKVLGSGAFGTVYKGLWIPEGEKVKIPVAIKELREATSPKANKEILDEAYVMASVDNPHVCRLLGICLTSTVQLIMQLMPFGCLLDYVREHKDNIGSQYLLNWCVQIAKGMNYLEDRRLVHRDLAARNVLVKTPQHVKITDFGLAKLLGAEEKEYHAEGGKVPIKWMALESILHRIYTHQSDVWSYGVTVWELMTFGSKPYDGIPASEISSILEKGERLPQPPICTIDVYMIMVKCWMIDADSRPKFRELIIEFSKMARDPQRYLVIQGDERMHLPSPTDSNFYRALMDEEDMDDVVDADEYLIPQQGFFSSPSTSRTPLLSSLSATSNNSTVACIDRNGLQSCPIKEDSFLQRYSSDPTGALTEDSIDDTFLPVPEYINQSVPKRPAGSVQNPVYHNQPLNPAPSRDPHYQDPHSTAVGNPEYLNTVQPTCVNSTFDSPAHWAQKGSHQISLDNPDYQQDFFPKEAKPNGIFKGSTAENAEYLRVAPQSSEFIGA

SMILES | IC50 [1] [nM] | IC50 [2] [nM] | IC50 [3] [nM] | IC50 [4] [nM] | IC50 (EGFR T790M kinase) [nM]
C=CC(=O)N1CC(Oc2cc3c(Nc4ccc(F)c(Cl)c4)ncnc3cc2OC)C1 [Example 25, 1-(3-(4-(3-chloro-4-fluorophenylamino)-7-methoxyquinazolin-6-yloxy)azetidin-1-yl)pro-2-pen-1-one] | 0.4 | > 5000 | – | – | –
C=CC(=O)N1CC(Oc2cc3c(Nc4ccc(Cl)c(Cl)c4F)ncnc3cc2OC)C1 [Example 24, 1-(3-(4-(3,4-dichloro-2-fluorophenylamino)-7-methoxyquinazolin-6-yloxy)azetidin-1-yl)pro-2-pen-1-one] | 0.6 | > 5000 | – | – | –
C=CC(=O)N1CC[C@@H](Oc2cc3c(Nc4ccc(Cl)c(Cl)c4F)ncnc3cc2OC)C[C@@H]1C(N)=O [Example 139, (2R,4R)-1-acryloyl-4-(4-(3,4-dichloro-2-fluorophenylamino)-7-methoxyquinazolin-6-yloxy)piperidin-2-carboxamide] | 1.1 | > 5000 | 0.8 | 1.1 | –
CN(C)C/C=C/C(=O)Nc1cc2c(Nc3ccc(F)c(Cl)c3)ncnc2cc1O[C@H]1CCOC1 [BIBW2992, reference compound] | – | 2640 | – | – | –
C=CC(=O)N1CCC(Oc2cc3c(Nc4cccc(Cl)c4)ncnc3cc2OC)CC1 [Example 43, 1-(4-(4-(3-chlorophenylamino)-7-methoxyquinazolin-6-yloxy)piperidin-1-yl)pro-2-pen-1-one] | 0.7 | > 5000 | – | – | –
C=C(NC(C)=O)C(=O)N1CC(Oc2cc3c(Nc4ccc(F)c(Cl)c4F)ncnc3cc2OC)C1 [Example 31, N-(3-(3-(4-(3-chloro-2,4-difluorophenylamino)-7-methoxyquinazolin-6-yloxy)azetidin-1-yl)-3-oxopro-1-en-2-yl)acetamide] | 2.5 | – | 3.1 | 50 | –
C=CC(=O)N1CC[C@H](Oc2cc3c(Nc4ccc(F)c(Cl)c4F)ncnc3cc2OC)C[C@H]1C(=O)NCCS(C)(=O)=O [Example 129, (2S,4S)-1-acryloyl-4-(4-(3-chloro-2,4-difluorophenylamino)-7-methoxyquinazolin-6-yloxy)-N-(2-(methylsulfonyl)ethyl)piperidin-2-carboxamide] | 0.6 | – | 2.2 | 50.4 | 3
C=CC(=O)N1CCC(Oc2cc3c(Nc4ccc(F)c(Cl)c4)ncnc3cc2OC)CC1 [Example 57, 1-(4-(4-(3-chloro-4-fluorophenylamino)-7-methoxyquinazolin-6-yloxy)piperidin-1-yl)pro-2-pen-1-one] | 2 | > 5000 | 17 | 16 | –
C=CC(=O)N1CCC(Oc2cc3c(Nc4ccc(Br)c(C)c4)ncnc3cc2OC)CC1 [Example 39, 1-(4-(4-(4-bromo-3-methylphenylamino)-7-methoxyquinazolin-6-yloxy)piperidin-1-yl)pro-2-pen-1-one] | 9 | – | 6 | 48 | 7.6
COc1cc2ncnc(Nc3ccc(F)c(Cl)c3F)c2cc1OC1CN(C(=O)/C=C\Cl)C1 [Example 32, (Z)-3-chloro-1-(3-(4-(3-chloro-2,4-difluorophenylamino)-7-methoxyquinazolin-6-yloxy)azetidin-1-yl)pro-2-pen-1-one] | 2.2 | – | 2.4 | 19 | –
CS(=O)(=O)CCNCc1ccc(-c2ccc3ncnc(Nc4ccc(OCc5cccc(F)c5)c(Cl)c4)c3c2)o1 [Lapatinib, reference compound] | 40 | > 5000 | 80 | – | –
C=CC(=O)N1CCC(Oc2cc3c(Nc4cccc(Br)c4)ncnc3cc2OC)CC1 [Example 42, 1-(4-(4-(3-bromophenylamino)-7-methoxyquinazolin-6-yloxy)piperidin-1-yl)pro-2-pen-1-one] | 0.7 | – | 1 | 96 | 7.1
C=CC(=O)N1CC(Oc2cc3c(Nc4ccc(F)c(Cl)c4F)ncnc3cc2OCCOC)C1 [Example 116, 1-(3-(4-(3-chloro-2,4-difluorophenylamino)-7-(2-methoxyethoxy)quinazolin-6-yloxy)azetidin-1-yl)prop-2-en-1-one] | 327 | – | 883 | – | –
COc1cc2ncnc(Nc3cccc(Cl)c3F)c2cc1OC1CCN(C(=O)CO)CC1 [Ex 1*] | 293 | – | 39 | > 1000 | –
C#Cc1cccc(Nc2ncnc3cc(OC)c(OC4CCN(C(=O)C=C)CC4)cc23)c1 [Example 37, 1-(4-(4-(3-ethynylphenylamino)-7-methoxyquinazolin-6-yloxy)piperidin-1-yl)pro-2-pen-1-one] | 79 | – | 52 | – | –
C=CC(=O)N1CC[C@@H](Oc2cc3c(Nc4ccc(F)c(Cl)c4F)ncnc3cc2OC)C[C@@H]1C(=O)NCCS(C)(=O)=O [Example 138, (2R,4R)-1-acryloyl-4-(4-(3-chloro-2,4-difluorophenylamino)-7-methoxyquinazolin-6-yloxy)-N-(2-(methylsulfonyl)ethyl)piperidin-2-carboxamide] | 1.3 | – | 2.4 | – | –
COc1cc2ncnc(Nc3cccc(Cl)c3F)c2cc1OC1CCN(C(=O)/C=C/CN(C)C)CC1 [Example 100, (E)-1-(4-(4-(3-chloro-2-fluorophenylamino)-7-methoxyquinazolin-6-yloxy)piperidin-1-yl)-4-(dimethylamino)but-2-en-1-one] | 15 | – | 76 | – | –
COc1cc2ncnc(Nc3ccc(F)c(Cl)c3F)c2cc1O[C@H]1CCN(C(=O)C#CCN(C)C)C1 [Example 5, 1-((3S)-3-(4-(3-chloro-2,4-difluorophenylamino)-7-methoxyquinazolin-6-yloxy)pyrrolidin-1-yl)-4-(dimethylamino)but-2-yn-1-one] | 128 | – | 33 | – | –
C=CC(=O)N1CC[C@H](Oc2cc3c(Nc4ccc(F)c(Cl)c4F)ncnc3cc2OC)C[C@H]1C(=O)NC [Example 121, (2S,4S)-1-acryloyl-4-(4-(3-chloro-2,4-difluorophenylamino)-7-methoxyquinazolin-6-yloxy)-N-methylpiperidin-2-carboxamide] | 2.5 | – | 2.2 | – | –
C=CC(=O)N1CCC(Oc2cc3c(Nc4cccc(CCl)c4)ncnc3cc2OC)CC1 [Example 77, 1-(4-(4-(3-(chloromethyl)phenylamino)-7-methoxyquinazolin-6-yloxy)piperidin-1-yl)pro-2-pen-1-one] | 7 | – | 26 | – | –
C=CC(=O)N1CCC(Oc2cc3c(Nc4cccc(N(C)C)c4)ncnc3cc2OC)CC1 [Example 64, 1-(4-(4-(3-(dimethylamino)phenylamino)-7-methoxyquinazolin-6-yloxy)piperidin-1-yl)pro-2-pen-1-one] | 11 | – | 142 | – | –
CCN(CC)C/C=C/C(=O)N1CC[C@H](Oc2cc3c(Nc4ccc(F)c(Cl)c4F)ncnc3cc2OC)C1 [Example 93, (E)-1-((3S)-3-(4-(3-chloro-2,4-difluorophenylamino)-7-methoxyquinazolin-6-yloxy)pyrrolidin-1-yl)-4-(diethylamino)but-2-en-1-one] | 40 | – | 28 | – | –
C=CC(=O)N1CC(Oc2cc3c(Nc4cccc(C#N)c4)ncnc3cc2OC)C1 [Example 27, 3-(6-(1-acryloylazetidin-3-yloxy)-7-methoxyquinazolin-4-ylamino)benzonitrile] | 3 | – | 17 | – | –
C=CC(=O)N1CC[C@H](Oc2cc3c(Nc4ccc(Cl)c(Cl)c4F)ncnc3cc2OC)C1 [Example 8, 1-((3S)-3-(4-(3,4-dichloro-2-fluorophenylamino)-7-methoxyquinazolin-6-yloxy)pyrrolidin-1-yl)pro-2-pen-1-one] | – | > 5000 | – | – | –
COc1cc2ncnc(Nc3ccc(F)c(Cl)c3F)c2cc1OCCNC(=O)/C=C/CN(C)C [Example 103, (E)-N-(2-(4-(3-chloro-2,4-difluorophenylamino)-7-methoxyquinazolin-6-yloxy)ethyl)-4-(dimethylamino)but-2-enamide] | 7 | – | 18 | – | –
C=CC(=O)N1CCC(Oc2cc3c(Nc4ccc(O)cc4Cl)ncnc3cc2OC)CC1 [Example 52, 1-(4-(4-(2-chloro-4-hydroxyphenylamino)-7-methoxyquinazolin-6-yloxy)piperidin-1-yl)pro-2-pen-1-one] | 30 | – | 176 | – | –
C=C(CN1CCCCC1)C(=O)N1CC(Oc2cc3c(Nc4ccc(F)c(Cl)c4F)ncnc3cc2OC)C1 [Example 108, 1-(3-(4-(3-chloro-2,4-difluorophenylamino)-7-methoxyquinazolin-6-yloxy)azetidin-1-yl)-2-(piperidin-1-ylmethyl)prop-2-en-1-one] | 6 | – | 9.1 | – | –
C=CC(=O)N1CCC(Oc2cc3c(Nc4ccc(O)c(Cl)c4)ncnc3cc2OC)CC1 [Example 78, 1-(4-(4-(3-chloro-4-hydroxyphenylamino)-7-methoxyquinazolin-6-yloxy)piperidin-1-yl)pro-2-pen-1-one] | 65 | – | 109 | – | –
C=CC(=O)N1CC[C@@H](Oc2cc3c(Nc4ccc(F)c(Cl)c4F)ncnc3cc2OC)C1 [Example 20] | 57 | – | 222 | – | –
C=CC(=O)N1CCC(Oc2cc3c(Nc4ccc(Cl)cc4)ncnc3cc2OC)CC1 [Example 70, 1-(4-(4-(4-chlorophenylamino)-7-methoxyquinazolin-6-yloxy)piperidin-1-yl)pro-2-pen-1-one] | 2.1 | – | 4.6 | – | –
